Molecular target: T1, calcium-independent phospholipase A2γ (iPLA2γ) (Homo sapiens, UniProt Q9NP80)
T1 construct: gene PNPLA8; 63 kDa recombinant human peroxisomal isoform, N-terminal (His)6 tag
T1 sequence (Q9NP80 221-782 limits assumed): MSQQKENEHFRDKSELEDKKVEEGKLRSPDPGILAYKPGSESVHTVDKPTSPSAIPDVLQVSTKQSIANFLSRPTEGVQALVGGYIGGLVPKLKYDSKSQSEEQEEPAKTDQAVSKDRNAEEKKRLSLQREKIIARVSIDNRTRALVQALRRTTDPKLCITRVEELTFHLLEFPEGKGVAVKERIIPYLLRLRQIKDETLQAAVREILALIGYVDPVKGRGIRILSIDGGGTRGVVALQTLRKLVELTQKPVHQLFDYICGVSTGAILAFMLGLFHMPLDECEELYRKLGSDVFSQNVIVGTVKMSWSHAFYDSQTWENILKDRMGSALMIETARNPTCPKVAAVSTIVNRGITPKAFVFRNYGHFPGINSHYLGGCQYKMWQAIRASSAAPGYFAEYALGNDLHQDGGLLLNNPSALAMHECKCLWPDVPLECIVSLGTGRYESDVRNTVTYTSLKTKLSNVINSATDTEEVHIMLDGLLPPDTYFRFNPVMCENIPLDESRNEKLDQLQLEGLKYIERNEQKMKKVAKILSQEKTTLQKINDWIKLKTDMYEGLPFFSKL
Assay: purified recombinant PLA2 activity assay (PAPC/diolein SUVs), LPC production by ESI-MS
Format: biochemical

C[N+](C)(C)C[C@@H](CC(=O)O)OC(=O)[C@@]1(CCCCCCOc2ccc(Cl)cc2)CO1 [ETO-carnitine, (R)-3-carboxy-2-(((R)-2-(6-(4-chlorophenoxy)hexyl)oxirane-2-carbonyl)oxy)-N,N,N-trimethylpropan-1-aminium]
IC50: ~1.75 nM

Reference: paper PMC11402452, “Etomoxir-carnitine, a novel pharmaco-metabolite of etomoxir, inhibits phospholipases A2 and mitochondrial respiration” (Journal of Lipid Research, 2024)
